Results published in US20110008888A1, “Novel Genetic Approaches to Reduce or Inhibit Tumorgenicity of Human Embryonic Stem Cells and Derivatives Following Transplantation” (The John Hopkins University, priority 2005, published 2011).
Entries after “also recorded” stand apart in the source; their conditions may differ. Like-named read-outs stand apart in the source and are kept apart here.

What was measured:
[1] = tested on: delayed rectifier K+ currents (IKDR) in mESCs; assay: Whole-cell patch clamp, block of IKDR in undifferentiated mESCs; assay type: cell-based, mouse; details: for IC50: whole-cell patch clamp, room temperature
[2] = tested on: IKDR in hESCs; assay: Whole-cell patch clamp, block of IKDR in undifferentiated hESCs; assay type: cell-based, human; details: pluripotent hESCs (H1)
[3] = tested on: mESCs; assay: Cell proliferation assay, mESCs (viable cell count after 48 hours); assay type: cell-based, mouse; details: for effect on proliferation of mESCs (words): dose-dependent, p<0.05; for EC50: mESCs, cell number after 48 hours, read-out: half-effective concentration (EC50) for inhibition of mESC proliferation
[4] = tested on: hESCs; assay: Cell proliferation assay, hESCs (colony parameters after 6 days); assay type: cell-based, human; details: for effect on proliferation of hESCs: dose-dependent, p<0.05
[5] = tested on: ESCs; assay: Cytotoxic effects of K+ channel blockers on ESCs; details: high concentrations

Which IC50 ([1]; undifferentiated mESCs) does the source give for `CC[N+](CC)(CC)CC` [TEA] here?
Its IC50 is 1400 ± 380 µM.

And the IC50 [2]?
The IC50 was 2100 ± 200 µM.

And the “effect on proliferation of mESCs (words)” value [3]?
Its value is “significantly reduced”.

And the “effect on proliferation of mESCs (words)” value ([3]; listed as TEA+)?
The value was “significantly inhibited”.

And the EC50 [3]?
The EC50 was 11900 ± 1200 µM.

And the “effect on proliferation of hESCs” value [4]?
The value was “significantly reduced”.

And the EC50 ([4]; hESCs, colony parameters after 6 days, read-out: EC50 for inhibition of hESC proliferation)?
The EC50 was 3800 ± 100 µM.

With iberiotoxin [IBTX] as the compound, how does the “IKDR component sensitive to blocker” value ([1]; mESCs, 100 nM IBTX) read?
The value was “sensitive”.

What about the “current inhibition of IKDR in mESCs” value ([1]; undifferentiated mESCs, IBTX 100 nM, n=3) of the same compound?
Its value is 33.2±12.7%.

What about the “effect on proliferation of mESCs (words)” value [3] of the same compound?
The value was “significantly reduced; also recorded: dose-dependently reduced”.

And the “effect on proliferation of hESCs” value [4]?
The value was “significantly reduced”.

What about the “cytotoxic effects” value [5] of the same compound?
The value was “cytotoxic effects”.

With `Nc1ccncc1` [4-AP, 4-aminopyridine] as the compound, how does the IC50 ([1]; undifferentiated mESCs) read?
The IC50 was 550 ± 170 µM.

And the EC50 ([3]; Mus musculus)?
Its EC50 is 4000 ± 1800 µM.

What about the “effect on proliferation of mESCs (words)” value [3] of the same compound?
Its value is “significantly reduced”.

What about the “effect on proliferation of hESCs” value [4] of the same compound?
Its value is “significantly reduced”.
